# Values quoted from earlier work, collected in patent US20100041622A1, “Compositions containing aminoalkanes and aminoalkane derivatives” (priority 2008, published 2010).
# System: vasoconstrictor activity
# Conditions: see U.S. Pat. No. 2,350,318
row,Compound,vasoconstrictor activity compared to ephedrine or amphetamine
1,CCC(C)CC(C)N (centres unmarked) [2-amino-4-methylhexane],greater vasoconstrictor activity

# System: not given
# Conditions: hydrophilic-lipophilic balance value, known values
row,Compound,HLB
1,CCCCCCCCCCCCCCCCCC(=O)OCC(O)CO (centres unmarked) [Glyceryl Stearate],3.5
2,Nonoxynol-9,12.9
3,PEG-4 lauryl ether,9.7
4,PEG-100 Stearate,18.8
5,Phosphatidylcholine,7.6
6,Sorbitan Palmitate,6.7
7,Sorbitan monostearate,4.7

# System: vasoconstrictor activity (blood pressure of pithed animal subject)
# Conditions: average epinephrine equivalent per 1 mg of sulfate derivative
row,Compound,Epinephrine equivalent (micrograms (μg)) of 1 mg of the sulfate salt of the aminoalkane
1,"CC(C)C(C)CCN (centres unmarked) [1-amino-3,4-dimethylpentane]",1.720 µg
2,"CC(C)CC(C)CCN (centres unmarked) [1-amino-3,5-dimethylhexane]",0.660 µg
3,CC(C)CCN [1-amino-3-methyl butane],0.238 µg
4,CCC(C)CCN (centres unmarked) [1-amino-3-methyl pentane],0.193 µg
5,CCCCC(C)CCN (centres unmarked) [1-amino-3-methylheptane],1.230 µg
6,CCCC(C)CCN (centres unmarked) [1-amino-3-methylhexane],0.108 µg
7,CC(C)CCCN [1-amino-4-methyl pentane],0.530 µg
8,CCCCCCCN [1-amino-heptane],0.276 µg
9,CCCCCCN [1-amino-hexane],0.766 µg
10,CCCCCCCCN [1-amino-octane],nil
11,CCCCCN [1-amino-pentane],0.210 µg
12,"CC(C)CCC(C)C(C)N (centres unmarked) [2-amino-3,6-dimethylheptane]",0.910 µg
13,CCCCCC(O)C(C)N (centres unmarked) [2-amino-3-hydroxy-octane],0.122 µg
14,CCCCC(C)C(C)N (centres unmarked) [2-amino-3-methylheptane],0.530 µg
15,CCCC(C)C(C)N (centres unmarked) [2-amino-3-methylhexane],0.858 µg
16,"CC(N)CC(C)(C)C (centres unmarked) [2-amino-4,4-dimethylpentane]",0.083 µg
17,"CC(N)CC(C)CC(C)(C)C (centres unmarked) [2-amino-4,6,6-trimethylheptane]",nil
18,"CC(C)CC(C)CC(C)N (centres unmarked) [2-amino-4,6-dimethylheptane]",0.193 µg
19,CCCCCCC(C)CC(C)N (centres unmarked) [2-amino-4-methyldecane],0.242 µg
20,CCCC(C)CC(C)N (centres unmarked) [2-amino-4-methylheptane],0.786 µg

row,Compound,Epinephrine equivalent (micrograms (μg)) of 1 mg of the sulfate salt of the aminoalkane
1,CCC(C)CC(C)N (centres unmarked) [2-amino-4-methylhexane],3.520 µg
2,CCCCC(C)CC(C)N (centres unmarked) [2-amino-4-methyloctane],0.475 µg
3,CC(C)CC(C)N (centres unmarked) [2-amino-4-methylpentane],0.840 µg
4,CCC(CC)CCC(C)N (centres unmarked) [2-amino-5-ethylheptane],0.358 µg
5,CCC(C)CCC(C)N (centres unmarked) [2-amino-5-methylheptane],0.980 µg
6,CC(C)CCC(C)N (centres unmarked) [2-amino-5-methylhexane],1.560 µg
7,C=C(C)CCC(C)N (centres unmarked) [2-amino-5-methylhexene-5],0.504 µg
8,CC(C)CCCC(C)N (centres unmarked) [2-amino-6-methylheptane],2.620 µg
9,CC(C)=CCCC(C)N (centres unmarked) [2-amino-6-methylheptene-5],0.391 µg
10,C=CCCC(C)N (centres unmarked) [2-amino-hexene-5],0.193 µg
11,CCCCCCC(C)N (centres unmarked) [2-amino-octane],0.510 µg
12,CCCC(C)N (centres unmarked) [2-amino-pentane],0.395 µg
13,CCCCCC(C)N (centres unmarked) [2-aminoheptane],3.100 µg
14,CCCCC(C)N (centres unmarked) [2-aminohexane],0.901 µg
15,CCC(N)CCC(C)C (centres unmarked) [3-amino-6-methylheptane],nil
16,CCCCCC(N)CC (centres unmarked) [3-amino-octane],0.142 µg
17,CCCCC(N)CC (centres unmarked) [3-aminoheptane],0.149 µg
18,"CC(C)CC(N)CC(C)C [4-amino-2,6-dimethylheptane]",nil
19,CCCC(N)CCC [4-aminoheptane],0.048 µg
